For 7 compounds, pKb and pEC50 results are on record in ChEMBL document CHEMBL1136926 (J Med Chem, 2009).

The source made the active and inactive calls. The calls are words filed in the database; no cut-off is given here. Positions of bridges follow the written chain, without caps; N, C: chain ends. Non-standard residues stand in square brackets, D forms with d. Residues, ends and D or L forms follow the SMILES beside them. dPen = CC(C)(S)[C@@H](N)C(=O)O; Orn = NCCC[C@H](N)C(=O)O

The target of the first assay is T1, Urotensin-2 receptor (Rattus norvegicus) (UniProt P49684).
T1 sequence (whole entry): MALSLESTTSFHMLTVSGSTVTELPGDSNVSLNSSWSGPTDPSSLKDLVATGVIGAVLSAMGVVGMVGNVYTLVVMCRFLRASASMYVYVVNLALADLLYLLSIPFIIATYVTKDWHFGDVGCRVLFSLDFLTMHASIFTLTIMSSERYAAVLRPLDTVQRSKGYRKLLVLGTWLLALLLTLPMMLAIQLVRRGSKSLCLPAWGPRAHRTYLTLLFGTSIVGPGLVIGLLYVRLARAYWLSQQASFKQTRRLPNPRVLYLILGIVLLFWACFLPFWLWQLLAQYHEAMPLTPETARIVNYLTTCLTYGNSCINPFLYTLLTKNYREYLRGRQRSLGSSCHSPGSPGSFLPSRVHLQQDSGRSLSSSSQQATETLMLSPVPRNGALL
Nature of the assay: Antagonist activity at UT2 receptor in Albino rat aorta assessed as inhibition of […] aortic contraction. It counts as functional, tissue-based.
Conditions: not given
As a reminder, the pKb is −log10 of the Kb, conventionally taken in molar units. With `CC(C)[C@H](NC(=O)[C@@H]1CSSC(C)(C)[C@@H](NC(=O)[C@@H](N)CC(=O)O)C(=O)N[C@@H](Cc2ccccc2)C(=O)N[C@H](Cc2c[nH]c3ccccc23)C(=O)N[C@@H](CCCN)C(=O)N[C@@H](Cc2ccc(O)cc2)C(=O)N1)C(=O)O` (H-D[dPen]F[dW][Orn]YCV-OH; disulfide 2-7), the pKb amounted to 8.3.

For `CC(C)[C@H](NC(=O)[C@@H]1CSSC(C)(C)[C@@H](NC(=O)[C@@H](N)Cc2ccc3ccccc3c2)C(=O)N[C@@H](Cc2ccccc2)C(=O)N[C@H](Cc2c[nH]c3ccccc23)C(=O)N[C@@H](CCCN)C(=O)N[C@@H](Cc2ccc(O)cc2)C(=O)N1)C(=O)O`, the pKb was 7.89.

Take `CC(C)[C@H](NC(=O)[C@@H]1CSSC(C)(C)[C@@H](NC(=O)[C@@H](N)Cc2ccc([N+](=O)[O-])cc2)C(=O)N[C@@H](Cc2ccccc2)C(=O)N[C@H](Cc2c[nH]c3ccccc23)C(=O)N[C@@H](CCCN)C(=O)N[C@@H](Cc2ccc(O)cc2)C(=O)N1)C(=O)O`: the pKb was 7.9.

Turning to `CC(C)[C@H](NC(=O)[C@@H]1CSSC(C)(C)[C@@H](NC(=O)[C@@H](N)CCCCN)C(=O)N[C@@H](Cc2ccccc2)C(=O)N[C@H](Cc2c[nH]c3ccccc23)C(=O)N[C@@H](CCCN)C(=O)N[C@@H](Cc2ccc(O)cc2)C(=O)N1)C(=O)O`, the pKb turned out to be 7.49.

For `CC(C)[C@H](NC(=O)[C@@H]1CSSC(C)(C)[C@@H](NC(=O)[C@@H](N)Cc2ccc(Cl)cc2)C(=O)N[C@@H](Cc2ccccc2)C(=O)N[C@H](Cc2c[nH]c3ccccc23)C(=O)N[C@@H](CCCN)C(=O)N[C@@H](Cc2ccc(O)cc2)C(=O)N1)C(=O)O`, the pKb came to 7.85.

For the compound `CC(C)[C@H](NC(=O)[C@@H]1CSSC(C)(C)[C@@H](NC(=O)[C@@H]2Cc3ccccc3CN2)C(=O)N[C@@H](Cc2ccccc2)C(=O)N[C@H](Cc2c[nH]c3ccccc23)C(=O)N[C@@H](CCCN)C(=O)N[C@@H](Cc2ccc(O)cc2)C(=O)N1)C(=O)O`, the pKb stood at 8.94.

For `CC(C)[C@H](NC(=O)[C@@H]1CSSC(C)(C)[C@@H](NC(=O)[C@@H](N)Cc2cccc3ccccc23)C(=O)N[C@@H](Cc2ccccc2)C(=O)N[C@H](Cc2c[nH]c3ccccc23)C(=O)N[C@@H](CCCN)C(=O)N[C@@H](Cc2ccc(O)cc2)C(=O)N1)C(=O)O`, the pKb is 8.5.

The target in a further assay is T1, Urotensin-2 receptor (Rattus norvegicus). The following applies: Albino, Aorta.
Description: Agonist activity at UT2 receptor in Albino rat aorta assessed as induction of aortic contraction
Take `CC(C)[C@H](NC(=O)[C@@H]1CSSC(C)(C)[C@@H](NC(=O)[C@@H](N)CC(=O)O)C(=O)N[C@@H](Cc2ccccc2)C(=O)N[C@H](Cc2c[nH]c3ccccc23)C(=O)N[C@@H](CCCN)C(=O)N[C@@H](Cc2ccc(O)cc2)C(=O)N1)C(=O)O` (H-D[dPen]F[dW][Orn]YCV-OH; disulfide 2-7): the pEC50 result is “inactive”.
